Experimental data published in publication PMC8347092, “Betulin, a Newly Characterized Compound in Acacia auriculiformis Bark, Is a Multi-Target Protein Kinase Inhibitor” (Molecules, 2021).
“And” between values parts separate entries of the source, which are not always exact repeats. Equal entries are not always repeated. Structures can show the parent of a compound that is named as a salt. Each block holds one compound with its values, some of them ahead of it.

What was measured:
Haspin = target: T1, Haspin (Homo sapiens, UniProt Q8TF76); assay: ADP-Glo protein kinase assay, Haspin; assay type: biochemical; details: 10 µM ATP, normalized to DMSO control, mean n = 2
T1 sequence (Q8TF76 1-798): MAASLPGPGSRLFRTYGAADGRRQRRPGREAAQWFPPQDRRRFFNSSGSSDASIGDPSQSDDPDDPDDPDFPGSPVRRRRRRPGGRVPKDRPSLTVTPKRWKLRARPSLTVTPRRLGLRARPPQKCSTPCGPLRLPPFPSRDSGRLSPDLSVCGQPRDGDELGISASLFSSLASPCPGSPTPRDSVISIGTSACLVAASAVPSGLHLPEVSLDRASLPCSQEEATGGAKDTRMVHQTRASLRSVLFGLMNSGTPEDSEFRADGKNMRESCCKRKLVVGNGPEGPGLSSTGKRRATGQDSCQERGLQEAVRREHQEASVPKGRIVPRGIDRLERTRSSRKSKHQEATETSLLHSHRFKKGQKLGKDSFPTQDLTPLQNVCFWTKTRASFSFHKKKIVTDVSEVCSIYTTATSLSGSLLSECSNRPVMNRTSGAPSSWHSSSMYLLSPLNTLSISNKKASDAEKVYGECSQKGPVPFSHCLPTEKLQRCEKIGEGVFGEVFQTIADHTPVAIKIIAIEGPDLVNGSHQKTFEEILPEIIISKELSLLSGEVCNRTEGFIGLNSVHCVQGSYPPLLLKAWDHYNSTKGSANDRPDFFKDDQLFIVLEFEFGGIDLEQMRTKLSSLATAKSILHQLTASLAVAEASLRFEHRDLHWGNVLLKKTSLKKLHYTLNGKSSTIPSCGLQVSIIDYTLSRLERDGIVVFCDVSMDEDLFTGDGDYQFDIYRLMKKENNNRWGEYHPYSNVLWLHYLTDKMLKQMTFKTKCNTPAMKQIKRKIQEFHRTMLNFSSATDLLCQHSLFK
Protocol: (§1) Kinase enzymatic activities were assayed in 384-well plates using the ADP-Glo^TM assay kit, following the recommendations of the manufacturer (Promega, Madison, WI). Controls were performed in appropriate dilutions of dimethyl sulfoxide (DMSO). Kinase activities, measured in the presence of 10 µM ATP, are expressed as percentage of maximal activity, i.e., measured in the absence of inhibitor. In order to determine the half-maximal inhibitory concentration (IC50), the assays were performed in duplicate in the absence or presence of increasing doses of the tested compounds. Data were analyzed using GraphPad PRISM (GraphPad Software, San Diego, CA, USA) software to fit a sigmoïdal curve that allowed determination of the IC50 values. The experimental conditions used for measuring kinase activities are comprehensively described in Ibrahim et al.. Human recombinant ABL1 mutant (T315I) was purchased from Promega (Catalog # V5320) and tested following the recommendations of the manufacturer (Promega, Madison, WI, USA).

NEK6 = NEK6 (Homo sapiens, UniProt Q9HC98); assay: ADP-Glo protein kinase assay, NEK6; assay type: biochemical
Protocol: as §1

CDK5/p25 = CDK5/p25 (Homo sapiens, UniProt Q00535); assay: ADP-Glo protein kinase assay, CDK5/p25; assay type: biochemical; details: 10 µM ATP, normalized to DMSO control, mean n = 2
Protocol: as §1

GSK-3β = GSK-3β (Homo sapiens, UniProt P49841); assay: ADP-Glo protein kinase assay, GSK-3β; assay type: biochemical; details: for % of kinase activity that remained, GSK-3β: 10 µM ATP, normalized to DMSO control, mean n = 2
Protocol: as §1

ABL1 = ABL1 (Homo sapiens, UniProt P00519); assay: ADP-Glo protein kinase assay, ABL1; assay type: biochemical; details: for % of kinase activity that remained, ABL1: 10 µM ATP, normalized to DMSO control, mean n = 2
Protocol: as §1, with “Kinase activities, measured in the presence of 10 µM ATP, are expressed as percentage of maximal activity, i.e., measured in the absence of inhibitor.” left out

ABL1 mutant (T315I) = ABL1 mutant (T315I) (Homo sapiens, UniProt P00519, T315I); details: inhibitor at 1 µM; 10 µM ATP; compared with wild type ABL1
Protocol: Effect of the T315I ABL1 kinase domain mutation on the inhibition by betulin. We selected 1 µM
We measured inhibition of mutant and WT ABL1 kinase activities by betulin and by
imatinib, using the ADP-Glo luminescent assay. ATP concentration used in the kinase assays was 10 µM.
Data are mean (N=3, n=3) ± SEM expressed as % of residual kinase activity, normalized to the DMSO control.

[1] = tested on: phospho-ERK1/2 (Thr202/Tyr204); assay: Immunoblot of phospho-ERK1/2 in K562S cells; assay type: cell-based, human; details: 6 h treatment, ImageJ band quantification
Protocol: The concentration of DMSO in the culture medium was 1%. Cell lysates were prepared by sonication of the cells in homogenization buffer with 0.5% of nonidet P-40 non-ionic detergent (NP-40) as described previously. SDS-PAGE and immunoblotting were performed following standard procedures. Anti-α-tubulin antibody (clone B512, T5168, 1:5000) was purchased from Sigma Aldrich (St. Louis, MO, USA). The anti-phospho-p44/42 MAPK (#28733–1-AP, 1:2000) was purchased from Proteintech® (Rosemont, IL, USA). This rabbit polyclonal antibody detects p44 and p42 MAPK when doubly phosphorylated (at Thr202 and Tyr204 of p44 and at Thr185 and Tyr187 of p42 MAPK).

[2] = tested on: human peripheral blood lymphocytes (hPBLs); assay: MTS cell viability assay, human peripheral blood lymphocytes; assay type: cell-based; details: betulin ≤ 100 µM, 48 h, four healthy donors
Protocol: Peripheral blood mononuclear cells (PBMCs) were isolated by Ficoll gradient centrifugation from blood buffy coats of healthy donors, provided by the Etablissement Français du Sang (EFS). The research protocol was conducted under French legal guidelines. After separation of monocytes by 1 h adhesion step, non-adherent PBMCs (peripheral blood lymphocytes, PBL) were harvested. PBL were cultured in RPMI 1640 medium (Gibco, Life technologies, Carlsbad, CA, USA) supplemented with 10% decomplemented fetal bovine serum (CVFSVF00–01, Eurobio), penicillin (100 IU/mL), and streptomycin (100 μg/mL) (15140–122, Gibco). All cells were cultured at 37 °C with 5% CO2.
(§2) Cell viability was evaluated with the MTS (3-(4,5-dimethylthiazol-2-yl)-5-(3-carboxymethoxyphenyl)-2-(4-sulfophenyl)-2H-tetrazolium) reduction kit, (CellTiter 96 Aqueous Non-Radioactive Cell Proliferation Assay, Promega, Fitchburg, WI, USA), according to the instructions of the manufacturer. […] Further details on experimental conditions used can be found in Delehouzé et al. 2017 [47].

JAK3 = target: T2, JAK3 (Homo sapiens, UniProt P52333); assay: ADP-Glo protein kinase assay, JAK3; assay type: biochemical; details: for % of kinase activity that remained, JAK3: 10 µM ATP, normalized to DMSO control, mean n = 2
T2 sequence (P52333 1-1124): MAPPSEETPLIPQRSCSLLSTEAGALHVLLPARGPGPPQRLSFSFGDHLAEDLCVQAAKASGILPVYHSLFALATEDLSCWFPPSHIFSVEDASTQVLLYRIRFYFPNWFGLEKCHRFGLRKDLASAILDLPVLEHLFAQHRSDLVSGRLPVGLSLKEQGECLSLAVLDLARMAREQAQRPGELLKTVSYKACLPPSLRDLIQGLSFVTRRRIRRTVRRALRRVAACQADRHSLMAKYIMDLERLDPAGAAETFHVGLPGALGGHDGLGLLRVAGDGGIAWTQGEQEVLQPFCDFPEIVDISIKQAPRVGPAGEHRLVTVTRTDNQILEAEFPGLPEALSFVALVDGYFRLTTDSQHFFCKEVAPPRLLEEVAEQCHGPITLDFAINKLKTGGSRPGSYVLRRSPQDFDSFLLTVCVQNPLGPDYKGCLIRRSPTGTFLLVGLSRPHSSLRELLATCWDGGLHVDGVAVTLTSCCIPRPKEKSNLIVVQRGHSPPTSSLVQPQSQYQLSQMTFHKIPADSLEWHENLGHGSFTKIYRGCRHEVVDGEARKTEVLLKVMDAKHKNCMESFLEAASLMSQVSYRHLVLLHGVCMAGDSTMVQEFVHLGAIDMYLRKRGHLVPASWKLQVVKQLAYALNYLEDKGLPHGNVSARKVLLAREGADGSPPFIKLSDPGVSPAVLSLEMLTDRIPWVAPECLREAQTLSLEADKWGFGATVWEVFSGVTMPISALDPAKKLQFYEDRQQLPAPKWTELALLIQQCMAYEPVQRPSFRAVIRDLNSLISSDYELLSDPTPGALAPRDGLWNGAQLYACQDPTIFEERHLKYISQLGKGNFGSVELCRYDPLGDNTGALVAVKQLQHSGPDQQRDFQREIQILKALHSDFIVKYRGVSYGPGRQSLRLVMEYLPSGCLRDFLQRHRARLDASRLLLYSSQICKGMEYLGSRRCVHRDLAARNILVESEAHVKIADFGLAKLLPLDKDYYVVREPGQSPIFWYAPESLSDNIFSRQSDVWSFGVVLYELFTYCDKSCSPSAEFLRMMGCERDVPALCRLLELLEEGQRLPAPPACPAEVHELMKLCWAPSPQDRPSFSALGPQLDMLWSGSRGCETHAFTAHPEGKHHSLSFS
Protocol: as §1

CDK9/CyclinT = CDK9/CyclinT (Homo sapiens, UniProt P50750); assay: ADP-Glo protein kinase assay, CDK9/CyclinT; assay type: biochemical; details: 10 µM ATP, normalized to DMSO control, mean n = 2
Protocol: as §1

VEGFR2 = VEGFR2 (Homo sapiens, UniProt P35968); assay: ADP-Glo protein kinase assay, VEGFR2; assay type: biochemical
Protocol: as §1

[3] = tested on: K562R (doxorubicin-resistant K562) chronic myelogenous leukemia cells; assay: MTS cell viability assay, K562R cells; assay type: cell-based; details: Homo sapiens, K-562R, 48 h exposure, n = 3
[4] = ref ChemSpider database, Royal Society of Chemistry; cited from earlier work
GSK-3α = GSK-3α (Homo sapiens, UniProt P49840); assay: ADP-Glo protein kinase assay, GSK-3α; assay type: biochemical
Protocol: as §1

Pim1 = Pim1 (Homo sapiens, UniProt P11309); assay: ADP-Glo protein kinase assay, Pim1; assay type: biochemical; details: for % of kinase activity that remained, Pim1: 10 µM ATP, normalized to DMSO control, mean n = 2
Protocol: as §1

[5] = tested on: K562S (doxorubicin-sensitive K562) chronic myelogenous leukemia cells; assay: MTS cell viability assay, K562S cells; assay type: cell-based, human; details: for IC50: Homo sapiens, K562, 48 h exposure, n = 3
Protocol: K562 (ATCC®, CCL-243, described here as K562S to indicate sensitivity to doxorubicin), a human chronic myelogenous leukemia cell line, was obtained from American Type Culture Collection (Manassas, VA, USA). A doxorubicin-resistant cell line (K562R, also known as K562/Adr) was kindly provided by the IRSET institute (Research Institute for Environmental and Occupational Health, INSERM, University of Rennes 1, France). The cells were maintained at 37 °C and 5% CO2 in Gibco™ 1640 Roswell Park Memorial Institute (RPMI-1640) medium containing 10% fetal bovine serum (FBS) (Life Technologies^TM, Thermo Fisher Scientific, Waltham, MA, USA).
as §2

CK1ε = CK1ε (Homo sapiens, UniProt P49674); assay: ADP-Glo protein kinase assay, CK1ε; assay type: biochemical; details: for % of kinase activity that remained, CK1ε: 10 µM ATP, normalized to DMSO control, mean n = 2
Protocol: as §1

[6] = cited from earlier work
[7] = betulin purified from Acacia auriculiformis at 1 µg/mL
[8] = betulin purified from Acacia auriculiformis at 10 µg/mL

CK1ε, sequence (P49674 whole entry): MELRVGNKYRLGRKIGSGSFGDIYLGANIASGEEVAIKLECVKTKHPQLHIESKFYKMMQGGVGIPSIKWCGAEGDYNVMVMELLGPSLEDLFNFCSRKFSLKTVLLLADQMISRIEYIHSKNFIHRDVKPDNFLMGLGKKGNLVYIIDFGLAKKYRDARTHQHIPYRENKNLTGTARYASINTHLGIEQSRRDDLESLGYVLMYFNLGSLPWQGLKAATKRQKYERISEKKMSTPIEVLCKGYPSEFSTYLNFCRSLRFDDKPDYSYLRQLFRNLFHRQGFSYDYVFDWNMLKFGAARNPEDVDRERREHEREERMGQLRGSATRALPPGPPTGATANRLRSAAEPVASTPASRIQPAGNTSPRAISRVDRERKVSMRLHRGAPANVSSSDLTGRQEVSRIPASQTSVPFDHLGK
Pim1, sequence (P11309 whole entry): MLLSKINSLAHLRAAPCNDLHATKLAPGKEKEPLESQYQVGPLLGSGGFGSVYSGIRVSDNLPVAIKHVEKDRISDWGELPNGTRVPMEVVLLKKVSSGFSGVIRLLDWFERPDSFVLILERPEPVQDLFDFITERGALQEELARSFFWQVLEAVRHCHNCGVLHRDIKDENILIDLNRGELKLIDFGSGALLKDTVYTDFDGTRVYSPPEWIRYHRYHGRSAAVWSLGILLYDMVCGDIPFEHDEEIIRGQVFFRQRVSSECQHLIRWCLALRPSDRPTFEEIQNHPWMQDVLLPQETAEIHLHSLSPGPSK
GSK-3β, sequence (P49841 whole entry): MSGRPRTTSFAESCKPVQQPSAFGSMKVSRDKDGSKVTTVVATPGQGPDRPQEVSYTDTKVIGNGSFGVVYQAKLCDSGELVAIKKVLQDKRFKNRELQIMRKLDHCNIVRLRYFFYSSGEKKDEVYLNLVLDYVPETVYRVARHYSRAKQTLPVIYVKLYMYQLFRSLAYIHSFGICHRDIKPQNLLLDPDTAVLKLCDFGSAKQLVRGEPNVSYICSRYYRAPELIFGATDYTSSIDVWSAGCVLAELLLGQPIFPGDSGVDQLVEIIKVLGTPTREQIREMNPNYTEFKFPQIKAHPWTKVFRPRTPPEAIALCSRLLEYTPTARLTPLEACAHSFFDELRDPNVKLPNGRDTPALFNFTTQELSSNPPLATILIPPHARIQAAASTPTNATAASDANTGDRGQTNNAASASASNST
CDK5/p25, sequence (Q00535 whole entry): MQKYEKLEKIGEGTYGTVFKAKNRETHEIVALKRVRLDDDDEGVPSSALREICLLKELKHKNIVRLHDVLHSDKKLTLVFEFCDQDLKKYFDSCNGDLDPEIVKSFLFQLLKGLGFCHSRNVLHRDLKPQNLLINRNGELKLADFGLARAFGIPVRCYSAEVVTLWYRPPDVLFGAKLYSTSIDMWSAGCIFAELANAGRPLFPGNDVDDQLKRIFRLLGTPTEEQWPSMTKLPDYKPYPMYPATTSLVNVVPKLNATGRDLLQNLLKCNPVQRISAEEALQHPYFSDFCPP
CDK5/p25, sequence (Q15078 99-307 partner limits assumed): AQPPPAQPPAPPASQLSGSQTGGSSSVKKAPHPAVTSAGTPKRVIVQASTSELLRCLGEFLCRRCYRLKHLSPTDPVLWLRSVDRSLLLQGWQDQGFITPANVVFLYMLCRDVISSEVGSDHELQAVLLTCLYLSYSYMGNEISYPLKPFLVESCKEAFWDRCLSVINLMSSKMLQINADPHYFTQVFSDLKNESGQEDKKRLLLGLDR
CDK9/CyclinT, sequence (P50750 whole entry): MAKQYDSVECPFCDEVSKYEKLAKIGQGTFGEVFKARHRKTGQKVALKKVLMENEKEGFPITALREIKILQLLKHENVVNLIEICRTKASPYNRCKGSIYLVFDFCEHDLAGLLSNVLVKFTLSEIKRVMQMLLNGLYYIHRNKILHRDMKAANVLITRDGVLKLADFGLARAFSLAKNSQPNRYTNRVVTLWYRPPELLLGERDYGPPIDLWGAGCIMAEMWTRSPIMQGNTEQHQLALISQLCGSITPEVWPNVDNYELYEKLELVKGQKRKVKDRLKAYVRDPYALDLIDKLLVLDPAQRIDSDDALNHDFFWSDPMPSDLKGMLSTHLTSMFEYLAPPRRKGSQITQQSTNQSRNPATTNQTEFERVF
CDK9/CyclinT, sequence (O60563 whole entry partner): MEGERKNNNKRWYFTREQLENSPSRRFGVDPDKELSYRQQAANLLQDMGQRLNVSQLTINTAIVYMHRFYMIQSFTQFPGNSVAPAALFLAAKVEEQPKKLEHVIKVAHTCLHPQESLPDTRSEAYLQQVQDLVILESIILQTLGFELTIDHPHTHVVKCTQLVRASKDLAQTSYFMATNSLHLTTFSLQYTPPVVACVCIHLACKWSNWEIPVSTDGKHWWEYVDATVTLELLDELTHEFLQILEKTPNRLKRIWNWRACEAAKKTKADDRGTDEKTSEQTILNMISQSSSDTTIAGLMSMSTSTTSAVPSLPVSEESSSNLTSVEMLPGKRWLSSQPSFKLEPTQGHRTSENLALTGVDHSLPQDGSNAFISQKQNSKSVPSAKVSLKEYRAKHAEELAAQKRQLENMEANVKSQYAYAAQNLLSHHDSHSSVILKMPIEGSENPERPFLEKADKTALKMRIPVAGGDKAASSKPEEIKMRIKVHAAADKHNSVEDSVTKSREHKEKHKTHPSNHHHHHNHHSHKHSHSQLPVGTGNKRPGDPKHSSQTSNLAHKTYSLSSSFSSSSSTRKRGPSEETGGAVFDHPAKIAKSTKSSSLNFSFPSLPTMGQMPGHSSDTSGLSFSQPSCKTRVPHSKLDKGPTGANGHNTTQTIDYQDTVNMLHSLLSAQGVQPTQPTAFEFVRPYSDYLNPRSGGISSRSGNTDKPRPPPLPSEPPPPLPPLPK
NEK6, sequence (Q9HC98 whole entry): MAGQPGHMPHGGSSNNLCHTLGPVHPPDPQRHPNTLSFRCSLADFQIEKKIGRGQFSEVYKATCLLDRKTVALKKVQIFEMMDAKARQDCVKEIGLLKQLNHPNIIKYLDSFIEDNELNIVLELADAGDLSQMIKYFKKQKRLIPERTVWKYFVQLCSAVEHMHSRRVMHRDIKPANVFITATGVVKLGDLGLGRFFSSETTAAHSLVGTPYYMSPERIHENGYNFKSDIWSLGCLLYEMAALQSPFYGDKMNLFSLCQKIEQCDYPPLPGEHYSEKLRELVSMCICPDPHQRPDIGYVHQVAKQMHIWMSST
VEGFR2, sequence (P35968 20-1356): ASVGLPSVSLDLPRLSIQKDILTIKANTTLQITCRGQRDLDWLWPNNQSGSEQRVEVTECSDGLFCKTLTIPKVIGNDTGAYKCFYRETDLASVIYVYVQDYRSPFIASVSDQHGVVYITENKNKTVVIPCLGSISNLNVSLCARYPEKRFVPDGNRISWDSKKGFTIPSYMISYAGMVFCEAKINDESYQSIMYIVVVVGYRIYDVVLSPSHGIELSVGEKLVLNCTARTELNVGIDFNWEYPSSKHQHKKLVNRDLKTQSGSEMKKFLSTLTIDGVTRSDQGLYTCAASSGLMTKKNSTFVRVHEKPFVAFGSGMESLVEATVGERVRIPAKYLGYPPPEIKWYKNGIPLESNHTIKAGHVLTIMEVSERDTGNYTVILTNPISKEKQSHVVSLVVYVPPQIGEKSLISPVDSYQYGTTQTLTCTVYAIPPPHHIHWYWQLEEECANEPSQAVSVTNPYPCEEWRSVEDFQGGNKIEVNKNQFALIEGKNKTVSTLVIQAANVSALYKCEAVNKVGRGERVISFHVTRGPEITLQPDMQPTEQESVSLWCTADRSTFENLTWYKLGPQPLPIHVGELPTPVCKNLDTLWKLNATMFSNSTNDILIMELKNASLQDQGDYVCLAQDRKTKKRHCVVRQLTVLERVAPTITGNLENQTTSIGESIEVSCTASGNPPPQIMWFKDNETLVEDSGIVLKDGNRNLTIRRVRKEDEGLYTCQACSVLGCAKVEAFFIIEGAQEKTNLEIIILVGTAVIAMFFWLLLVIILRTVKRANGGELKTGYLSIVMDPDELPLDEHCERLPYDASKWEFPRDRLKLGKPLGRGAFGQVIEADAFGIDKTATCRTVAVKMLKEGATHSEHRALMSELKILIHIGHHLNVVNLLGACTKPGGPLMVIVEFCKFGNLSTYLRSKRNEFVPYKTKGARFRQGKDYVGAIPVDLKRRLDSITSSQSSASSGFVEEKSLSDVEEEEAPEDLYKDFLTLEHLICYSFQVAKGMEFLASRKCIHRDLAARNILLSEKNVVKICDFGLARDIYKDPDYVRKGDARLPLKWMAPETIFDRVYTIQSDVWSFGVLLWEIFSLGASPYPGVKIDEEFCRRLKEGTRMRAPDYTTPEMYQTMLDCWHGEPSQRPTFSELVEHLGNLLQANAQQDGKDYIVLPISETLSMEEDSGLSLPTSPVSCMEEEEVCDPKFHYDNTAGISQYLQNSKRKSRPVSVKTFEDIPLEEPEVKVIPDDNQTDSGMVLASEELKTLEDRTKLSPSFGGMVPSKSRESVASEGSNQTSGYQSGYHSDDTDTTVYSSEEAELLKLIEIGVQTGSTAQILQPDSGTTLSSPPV
GSK-3α, sequence (P49840 whole entry): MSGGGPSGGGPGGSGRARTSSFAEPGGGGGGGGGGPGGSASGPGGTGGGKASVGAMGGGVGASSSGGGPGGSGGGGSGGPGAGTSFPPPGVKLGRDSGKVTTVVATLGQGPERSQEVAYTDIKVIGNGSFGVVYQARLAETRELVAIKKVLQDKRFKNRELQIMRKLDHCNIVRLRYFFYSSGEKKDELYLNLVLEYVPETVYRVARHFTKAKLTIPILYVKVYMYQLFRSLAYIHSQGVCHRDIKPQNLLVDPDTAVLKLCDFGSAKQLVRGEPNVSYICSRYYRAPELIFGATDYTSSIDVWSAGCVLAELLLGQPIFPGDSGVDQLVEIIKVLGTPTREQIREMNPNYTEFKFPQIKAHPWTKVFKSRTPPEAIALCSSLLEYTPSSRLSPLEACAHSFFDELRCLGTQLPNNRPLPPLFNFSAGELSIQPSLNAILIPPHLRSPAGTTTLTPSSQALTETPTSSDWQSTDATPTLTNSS

Structure (SMILES): C=C(C)[C@@H]1CC[C@]2(CO)CC[C@]3(C)[C@H](CC[C@@H]4[C@@]5(C)CC[C@H](O)C(C)(C)[C@@H]5CC[C@]43C)[C@@H]12 [Betulin, 3-lup-20(29)-ene-3β,28-diol]
% of kinase activity that remained, Haspin (Haspin; [7]): 72%
% of kinase activity that remained, Haspin (Haspin; [8]): 91%
IC50 (NEK6): 3.02 µM
% of kinase activity that remained, CDK5/p25 (CDK5/p25; [7]): 94%
% of kinase activity that remained, CDK5/p25 (CDK5/p25; [8]): 99%
IC50 (GSK-3β): 1.06 µM
% of kinase activity that remained, GSK-3β (GSK-3β; [7]): 38%
% of kinase activity that remained, GSK-3β (GSK-3β; [8]): 30%
IC50 (ABL1): 0.93 µM
inhibition of the ABL1 activity in ATP competition assay (ABL1; 10 µM betulin, 100 µM ATP compared with 10 µM ATP): significantly decreased
% of kinase activity that remained, ABL1 (ABL1; [7]): 36%
% of kinase activity that remained, ABL1 (ABL1; [8]): 21%
inhibition at 10 µg/mL (ABL1; read-out: inhibition of kinase activity, ABL1): 79%
inhibition of the enzymatic activity of T315I mutant of ABL1 (ABL1 mutant (T315I)): retains its capacity to inhibit
%pERK/Tubulin ([1]; 50 µM): 71.3%
%pERK/Tubulin ([1]; 100 µM): 48.3%
viability of hPBLs [2]: did not induce a significant decrease
IC50 (JAK3): 1.08 µM
% of kinase activity that remained, JAK3 (JAK3; [7]): 28%
% of kinase activity that remained, JAK3 (JAK3; [8]): 25%
% of kinase activity that remained, CDK9/CyclinT (CDK9/CyclinT; [7]): 88%
% of kinase activity that remained, CDK9/CyclinT (CDK9/CyclinT; [8]): 60%
IC50 (VEGFR2): 2.45 µM
IC50 [3]: 13.5 µM
predicted Octanol-Water Partition Coefficient (LogP) [4]: 9.01
IC50 (GSK-3α): 0.72 µM
% of kinase activity that remained, Pim1 (Pim1; betulin purified from Acacia auriculiformis at 1 µg/mL, ≥100 = no detectable inhibition): ≥100%
% of kinase activity that remained, Pim1 (Pim1; [8]): 90%
inhibition at 10 µg/mL (Pim1; read-out: inhibition of kinase activity, Pim1): 10%
IC50 [5]: 16.5 µM
effects on K562S cell viability when cells co-treated with z-VAD-fmk ([5]; betulin 1-50 µM with 20 µM z-VAD-fmk (pan-inhibitor of caspases), 48 h): not significantly altered
IC50 (CK1ε): 2.11 µM
% of kinase activity that remained, CK1ε (CK1ε; [7]): 53%
% of kinase activity that remained, CK1ε (CK1ε; [8]): 48%
solubility in water [6]: 0.08 μg/mL and 0.18 µM

IC50 [5]: 0.59 µM
Structure (SMILES): COc1cccc2c1C(=O)c1c(O)c3c(c(O)c1C2=O)C[C@@](O)(C(=O)CO)C[C@@H]3O[C@H]1C[C@H](N)[C@H](O)[C@H](C)O1 [Doxorubicin, reference compound]

Structure (SMILES): Cc1ccc(NC(=O)c2ccc(CN3CCN(C)CC3)cc2)cc1Nc1nccc(-c2cccnc2)n1 [imatinib mesylate, reference compound]
%pERK/Tubulin ([1]; 20 µM): 1.5%
